Assay results published in patent US9320281B2, “Readied in situ glyphosate herbicide soluble powder composition and its preparation process” (ALLVET QUIMICA INDUSTRIAL LTDA., priority 2011, dated 2016).
Where “and” joins values, the source holds several entries; their conditions need not be identical. Equal values may be shown once.

Columns and labels:
Fish = Fish toxicology LC50, OECD 203, 96 h; assay type: in vivo; conditions: for times less toxic for fish compared to a fatty amine ethoxylate: in vivo; for Fish toxicology LC50: OECD 203, 96 h
Text: (§1) The low toxicity of coconut fatty acid copolymers with glycerol is illustrated by the following table

variety of weeds = assay: Extensive field tests in Brazil and South Africa versus standard 360 g/liter liquid formulation; assay type: in vivo; conditions: surfactant in the glyphosate formulation
Method: The product was extensively tested on the field. During eighteen months the soluble powder formulation was applied in different dosages on a variety of weeds in the state of Paraná, Brazil and in the province of […] in the Republic of South Africa and the results were compared with those obtained applying the standard product 360 g/liter liquid formulation side by side on the same fields.
More than one hundred field tests of the Soluble Powder were carried out. Each test consisted in applying different dosages of glyphosate acid on the field using the Soluble Powder object of the present invention and similar dosages of the standard 360 g/liter liquid formulation and comparing the results obtained side by side on the same field. Phytotoxicity of the weeds was measured by sampling and visual counting. All results were recorded and photographs taken before and after the tests.

daphnia = assay: Acute daphnia immobilization EC50, OECD 202; assay type: in vivo; conditions: for times less toxic for daphnia compared to a fatty amine ethoxylate: in vivo
Text: as §1

rats = assay: Acute oral toxicology LD50 in rats; assay type: in vivo
rabbits = assay: Eye irritation rabbits; conditions: rabbit, in vivo
[1] = 1,4-Dioxane content (carcinogen)
Text: The inevitable presence of 1,4-dioxane in all ethoxylated products is the reason why all ethoxylates including coco amide ethoxylates were excluded from consideration in the product of the present invention.

[2] = cited from earlier work

| Compound | times less toxic for fish compared to a fatty amine ethoxylate (Fish) [times] | times less toxic for daphnia compared to a fatty amine ethoxylate (daphnia) [times] | Biodegradability (Biodegradability) [%] | Fish toxicology LC50 (Fish) | Eye irritation rabbits (rabbits) | other results |
| --- | --- | --- | --- | --- | --- | --- |
| coco amide propyl betaine | 15 | 100 |  |  |  | efficiency as surfactant compared with coco amide propyl amine oxide (variety of weeds): just as efficient |
| coconut oil polymer with glyceryl and phthalic anhydride |  |  | >42 |  |  |  |
| Fatty amine ethoxylate [reference compound] |  |  | <60 | 0.42 mg/l | Serious eye | Acute oral toxicology LD50 (rats): 200-2000 mg/kg; Acute daphnia immobilization EC50 (daphnia; OECD 202): 0.46 µg/mL; 1,4-Dioxane content (carcinogen) [1]: Up to 25,000 ppm |
| Coco amide propyl amine oxide | 15 | 100 | >90 | 6 mg/l and >6 mg/l | Irritant |  |
| O=C(O)CNCP(=O)(O)O [Glyphosate, N-(phosphonomethyl)-glycine] |  |  |  |  |  | solubility in water [2]: insoluble |
